Reference: patent publication US20110028422A1 (priority 2007, published 2011)

How the values were obtained:
[1] = system: CLL lymphocytes; test: MTT cytotoxic assay, CLB sensitization (Example I); type: cell-based, human; settings: MTT 72 h
Protocol: Aliquots containing 1×10^6 cells/ml are sent for T-lymphocyte analysis. The percentage of contaminating T lymphocytes is determined using fluorescence-activated cell sorting analysis with CD3 antibody. […] A-2) Plating Efficiency and Dosing. […] Only dose responses with linear plating efficiencies are analyzed. […] A-3) Cytotoxic Assay. […] The percentage of surviving cells after treatment respect to vehicle treated cells (control) is calculated as (OD treated cells/OD untreated cells)×100. […] A-4) Statistical Analysis Differences between mean values is assessed by two tailed t-test. Correlation and linear regression analysis are performed using the EXCEL Statistical Tool Package.

[2] = system: H2AX; test: CLB-induced H2AX; type: cell-based
[3] = system: NFκB pathway; test: NFκB pathway regulation; type: cell-based; settings: c-abl inhibition; B-CLL lymphocytes

In the case of `Cc1cn(-c2cc(NC(=O)c3ccc(C)c(Nc4nccc(-c5cccnc5)n4)c3)cc(C(F)(F)F)c2)cn1` [Nilotinib, 4-methyl-3-[[4-(3-pyridinyl)-2-pyrimidinyl]amino]-N-[5-(4-methyl-1H-imidazol-1-yl)-3-(trifluoromethyl)phenyl]benzamide], the “samples in which potency in sensitizing CLL lymphocytes towards chlorambucil was greater than imatinib” value [1] is reported as 16/19, the “CLB-induced □ H2AX” value [2] is reported as “increased” and the NFκB pathway [3] is reported as “down regulation”.
